The values below come from patent US20090281025A1, “INHIBITION OF TUMOR GROWTH AND METASTASIS BY ATF2-DERIVED PEPTIDES” (Mount Sinai School Of Medicine of New York University, priority 2004, published 2009).

Values joined by “and” are separate entries in the source; they are usually repeats but may differ in a detail not shown here. Equal values may be shown once.

One assay has as its system SW1 tumors. Nature of the assay: cDNA microarray gene expression profiling of SW1 tumors. The class given is in vivo, mouse. The source says: FIGS. 8A and 8B show gene profiling analysis of SW1 tumors expressing the ATF2^51-100 peptide. Tumors generated, in the absence or presence of a peptide, were used as source of mRNA for array analysis of 10K mouse genes (see Example 5). […] In all cases, the data represent analyses carried out 4 times from 4 different pools of tumors.
To elucidate the molecular pathways affected by expression of the ATF2^51-100 peptide, we used cDNA microarray analysis to compare the RNA expression profiles of SW1 tumors that express this peptide or a control vector (FIG. 8A). The 10k mouse Gem 2 gene set (Incyte Genomics Inc, Palo Alto, Calif.) was printed at the NCI on poly-L-lysine-coated glass using a Biorobotics TASII arrayer (Cambridge, England). All protocols for manufacturing and hybridization of microarrays are posted on the NCI web site (see, e.g., nciarray.nci.nih.gov). Approximately 20 μg of total RNA were used in the reverse transcription reaction to directly label the probe with Cy-5 dUTP or Cy-3 dUTP (Amersham). Hybridizations were performed at 65° C. for 12-18 h in a hybridization volume of 35 μL. The hybridized arrays were scanned using an Axon GenePix 4000 scanner (Union City, Calif.) and fluorescence data were collected using the GenePix software.
mRNA was prepared from a pool of 4 tumors obtained from two different experiments. In both cases, tumors were excised 2 weeks after subcutaneous injection of cells. Because the fluorescently labeled Cy dyes may incorporate into the reverse-transcribed cDNA with different efficiencies, RNA isolated from both cell types was always labeled with both combinations of Cy dyes. […] SW1 vector control cells were labeled with Cy-3 (F532) and the SW1-ATF 51-100 cells were labeled with Cy-5 (F635).

A further assay has as its system SW1 cells. Nature of the assay: Tumor growth of SW1 cells constitutively expressing ATF2 peptides, injected subcutaneously. It counts as in vivo, mouse. Particulars: 10^6 SW1 cells SC, 18 days; control construct 1100 mm^3. The protocol: SW1 cells, which constitutively express the peptides indicated in FIG. 4A, were analyzed to detect expression of ATF2 peptides at the RNA level using RT-PCR. The indicated MW bands reflect the expected size product. SW1 cells (10^6) were injected subcutaneously into […] mice and tumor growth was monitored for 18 days, at which point tumors were removed and their size carefully assessed (FIG. 4B). Each group included 6 animals and each experiment was performed twice (P<0.01; T-test).
Inhibition of Tumor Growth. To examine the importance of the JNK association domain on ATF2, the possible role of a smaller peptide containing an intact JNK binding site (i.e., amino acids M^51T^52 of ATF2) was examined. To this end, three peptides of differing sizes (amino acids 51-80, 51-70, and 51-60) were compared to ATF2^51-100 peptide in their ability to inhibit tumor growth of SW1 cells in vivo. RT-PCR reactions confirmed the expression of these peptides' transcripts in the SW1 cells (FIG. 4A). […] However, expression of the 50aa peptide in these cells (constitutive expression based on selection of drug-resistant cells) decreased tumor size to 300 mm^3. Strikingly, constitutive expression of each of the 3 shorter peptides also elicited inhibition of melanoma growth that varied from 400-600 mm^3 (FIG. 4B). […] Further evaluation was performed on this 10 amino acid peptide.

In assay [1] the test system is Human melanoma cells LU1205. Briefly: Caspase and PARP cleavage immunoblot in LU1205 cells. The class given is cell-based. Particulars: peptides by transfection, UCN-01 (5 μm) 24 hours. On the procedure: Human melanoma cells LU1205 were transfected with the nucleic acid molecules that encode either ATF2^51-100 peptide or ATF2^51-60 peptide. Twenty-four hours after transfection, cells were treated with of UCN-01 (5 μm) for 24 hours. Immunoblotting analysis was performed using caspase 9 and PARP antibodies, and β-actin was used as a loading control (FIG. 6A). The same experiment was performed in SW-1 cells (FIG. 6B). Stars point to the position of the uncleaved form whereas arrows point to the cleaved products.
Effect on Apoptosis. Assessed next was the degree of apoptosis in SW1 cells under normal growth (spontaneous) as well as following treatment with chemotherapeutic drugs. Cells were analyzed to detect spontaneous (basal) or induced apoptosis [following treatment with the kinase inhibitor UCN-01 (kindly provided by NCI repository) for 36 hours]. Apoptosis was measured by using FACS (Ivanov et al., Mol. Cell, 2001, 7:517-28) to quantify the percentage of hypodiploid nuclei undergoing DNA fragmentation. Nucleation as a marker of apoptosis was monitored via DAPI staining of cells at indicated time points after their treatment. Caspase activity was monitored by immunoblots using antibodies to caspase 9 (Santa Cruz). PARP cleavage was monitored by corresponding antibodies (PharMingen).

[2] abbreviates: tumors expressing peptide vs control vector.

On to “ATF2^51-100: amino-terminal peptide of ATF2, amino acid residue 51 to 100 (about a 50 amino acid peptide), expressed in tumor cells (MTLKFGPARNDSVIVADQTPTPTRFLKNCEEVGLFNELASPFENEFKKAS; UniProt P15336 51-100, looked up, fragment)”, for which, in the assay with SW1 tumors (setting [2]), the “expression of Fas-associated genes” value is given as “down-regulation”; the “expression of growth-associated genes (epidermal growth factor, hepatoma-derived growth factor, insulin-like growth factor) and interferon-associated genes” value is listed as “consistent down-regulation”; the “expression of tumor necrosis factor-related genes” value is “strongly upregulated”. In the assay on SW1 tumors (upregulated, IMAGE: 331395, hybridizations #1-#4, listed as ATFp2), the “Ratio ATFp2-Cy5 vs parental control-Cy3: Kifap3 (kinesin-associated protein 3)” value was 2.1192 and 2.1268 and 2.9811 and 3.9220. For the same substance, the “Ratio ATFp2-Cy5 vs parental control-Cy3: Hbb-b1 (hemoglobin, beta adult major chain)” value in the assay with SW1 tumors (upregulated, IMAGE: 332935, hybridizations #1-#4, listed as ATFp2) was 3.1997 and 3.2112 and 2.7725 and 3.6146. Further, the “Ratio ATFp2-Cy5 vs parental control-Cy3: Hbb-b1 (hemoglobin, beta adult major chain)” value with SW1 tumors (upregulated, IMAGE: 518979, hybridizations #1-#4, listed as ATFp2) was 2.8994 and 2.9099 and 2.4766 and 2.5621. Besides, the “Ratio ATFp2-Cy5 vs parental control-Cy3: D0H4S114 (DNA segment, human D4S114)” value in the assay on SW1 tumors (upregulated, IMAGE: 535754, hybridizations #1-#4, listed as ATFp2) was 3.0625 and 3.0736 and 4.2117 and 3.5432. Besides, the “Ratio ATFp2-Cy5 vs parental control-Cy3: Scyb13 (small inducible cytokine subfamily B (Cys-X-Cys), member 13)” value in the assay with SW1 tumors (upregulated, IMAGE: 596683, hybridizations #1-#4, listed as ATFp2) was 3.6935 and 3.7069 and 4.4104 and 4.1619. Besides, the “Ratio ATFp2-Cy5 vs parental control-Cy3: C85356 (expressed sequence C85356)” value in the assay on SW1 tumors (upregulated, IMAGE: 776163, hybridizations #1-#4, listed as ATFp2) is 6.2407 and 6.2633 and 5.4673 and 4.7632. Also, the “Ratio ATFp2-Cy5 vs parental control-Cy3: ESTs” value with SW1 tumors (upregulated, IMAGE: 809168, hybridizations #1-#4, listed as ATFp2) was 2.6457 and 2.6552 and 2.6858 and 2.3889. Further, the “Ratio ATFp2-Cy5 vs parental control-Cy3: Mme (membrane metallo endopeptidase)” value in the assay with SW1 tumors (upregulated, IMAGE: 849871, hybridizations #1-#4, listed as ATFp2) is 4.8477 and 4.8652 and 4.8096 and 4.5247. Besides, the “Ratio ATFp2-Cy5 vs parental control-Cy3: Ogn (osteoglycin)” value with SW1 tumors (upregulated, IMAGE: 902951, hybridizations #1-#4, listed as ATFp2) is 2.7606 and 2.7705 and 2.7398 and 2.3263. In addition, in the assay on SW1 tumors (upregulated, IMAGE: 960604, hybridizations #1-#4, listed as ATFp2), the “Ratio ATFp2-Cy5 vs parental control-Cy3: RIKEN cDNA 1110068L01 gene” value was 2.7162 and 2.7260 and 3.6427 and 3.9752. Besides, in the assay with SW1 tumors (upregulated, IMAGE: 1052178, hybridizations #1-#4, listed as ATFp2), the “Ratio ATFp2-Cy5 vs parental control-Cy3: Akr1c13 (aldo-keto reductase family 1, member C13)” value is 3.6319 and 3.6450 and 3.4859 and 3.4284. The “Ratio ATFp2-Cy5 vs parental control-Cy3: Tna (tetranectin (plasminogen-binding protein))” value in the assay on SW1 tumors (upregulated, IMAGE: 1068748, hybridizations #1-#4, listed as ATFp2) was 5.0430 and 5.0612 and 4.9219 and 4.6123. In addition, in the assay on SW1 tumors (upregulated, IMAGE: 1107479, hybridizations #1-#4, listed as ATFp2), the “Ratio ATFp2-Cy5 vs parental control-Cy3: Top1 (topoisomerase (DNA) I)” value is 2.6799 and 2.6896 and 3.4635 and 3.3665. In the assay on SW1 tumors (upregulated, IMAGE: 1139544, hybridizations #1-#4, listed as ATFp2), the “Ratio ATFp2-Cy5 vs parental control-Cy3: Il1b (interleukin 1 beta)” value was 2.5423 and 2.5514 and 3.4806 and 3.3033. For the same substance, the “Ratio ATFp2-Cy5 vs parental control-Cy3: Igfbp2 (insulin-like growth factor binding protein 2)” value with SW1 tumors (upregulated, IMAGE: 1277469, hybridizations #1-#4, listed as ATFp2) is 3.2649 and 3.2767 and 3.3268 and 3.0043. The “Ratio ATFp2-Cy5 vs parental control-Cy3: Igj (immunoglobulin joining chain)” value in the assay with SW1 tumors (upregulated, IMAGE: 1277614, hybridizations #1-#4, listed as ATFp2) was 3.0715 and 3.0826 and 3.4986 and 4.0870. The “Ratio ATFp2-Cy5 vs parental control-Cy3: Sp3 (trans-acting transcription factor 3)” value with SW1 tumors (upregulated, IMAGE: 1399769, hybridizations #1-#4, listed as ATFp2) is 2.3816 and 2.3902 and 3.1712 and 3.6075. In the assay on SW1 tumors (upregulated, IMAGE: 1480170, hybridizations #1-#4, listed as ATFp2), the “Ratio ATFp2-Cy5 vs parental control-Cy3: Efemp1 (epidermal growth factor-containing fibulin)” value is 2.6354 and 2.6449 and 2.6270 and 2.3980. For the same substance, the “Ratio ATFp2-Cy5 vs parental control-Cy3: Lum (lumican)” value in the assay on SW1 tumors (upregulated, IMAGE: 2101997, hybridizations #1-#4, listed as ATFp2) is 2.5956 and 2.6050 and 2.6414 and 2.8732. This substance also showed a tumor size in the assay with SW1 cells of 300 mm^3. Besides, the “activation of caspase 9 (cleavage fragments)” value in assay [1] is on record as “activation of caspase 9 even prior to treatment with UCN-01”.
